Laboratory results reported in patent publication US20250230138A1, “COMPOUNDS HAVING A T-STRUCTURE FORMED BY AT LEAST FOUR CYCLES FOR USE IN THE TREATMENT OF CANCER AND OTHER INDICATIONS” (TheRas, Inc., priority 2022, published 2025).
Read-outs that look alike come from different tables or passages of the source.

Legend:
pAKT in BT474 cells = assay: Cell-based pAKT HTRF assay in BT474 cells; conditions: BT474 cells, 4 hr incubation, read-out: pAKT inhibition IC50 in BT474 cells
Summary of the method: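 Cells grown in DMEM with 10% FBS were exposed to compounds for 4 hr in 0.25% DMSO, using a 9-point, 3-fold dilution series that starts at 3 μM. Lysates were incubated with d2 and Eu Cryptate antibodies for 4–24 h at room temperature, and HTRF was read at 615 nm emission.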

[1] = biological target: Cys242 in human PIK3CA (157-299) (Homo sapiens (Human), UniProt P42336); assay: Covalent modification assay using MALDI-TOF MS; format: biochemical; conditions: 4 h reaction time point
Summary of the method: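 Covalent adduct formation was read by linear-mode MALDI-TOF with sinapinic acid matrix, reported as modified-protein peak height divided by total protein peak heights. Reactions held PIK3CA (157-299) at 1 or 3.33 μM in HEPES/NaCl/MgCl2 buffer, pH 7.3, sampled after 15 min to 4 h at room temperature.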

[2] = 3.33 μM protein target, 1:7.5 protein to compound ratio (compounds 1-852)
[3] = 1 μM protein target, 1:5 protein to compound ratio (compounds 853-1279)

Cys242 in human PIK3CA (157-299), sequence (P42336 157-299): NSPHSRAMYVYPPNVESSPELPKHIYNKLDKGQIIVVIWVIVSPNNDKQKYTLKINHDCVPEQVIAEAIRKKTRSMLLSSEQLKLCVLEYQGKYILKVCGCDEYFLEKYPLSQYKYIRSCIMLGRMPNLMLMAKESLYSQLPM

Row | SMILES | IC50 (pAKT in BT474 cells; Compounds 10-999) [nM] | % of modification [1, 2] | IC50 (pAKT in BT474 cells; Compounds 1000-1279) [nM] | % of modification [1, 3]
1 | C=CC(=O)N1Cc2cc(-c3nc(-c4ccc5ncn(C)c5c4)c4ccsc4c3-c3c(F)cc(F)cc3OC(C)C)nn2CC1C (stereo not drawn) [Compound 488] | < 100 | A (percent of modification of PIK3CA protein ≥75%) |  | 
2 | C=CC(=O)N1Cc2cc(-c3nc(-c4ccc5cn[nH]c5c4)c4ccsc4c3-c3c(F)cc(F)cc3OCCOC)nn2C[C@H]1C [Compound 690] | < 100 | A (percent of modification of PIK3CA protein ≥75%) |  | 
3 | C=CC(=O)N1Cc2cc(-c3nc(-c4cn(C)cn4)c4ccsc4c3-c3c(F)cc(F)cc3OC)nn2C[C@H]1C [Compound 843] | < 100 | A (percent of modification of PIK3CA protein ≥75%) |  | 
4 | C=CC(=O)N1Cc2cc(-c3nc(-c4cn(C)cn4)c4ccsc4c3-c3c(F)cc(F)cc3OCC(C)O)nn2C(C)C1 (stereo not drawn) [Compound 639] | < 100 | A (percent of modification of PIK3CA protein ≥75%) |  | 
5 | C=CC(=O)N1CCn2nc(-c3nc(-c4cncc(C#N)c4)c4ccsc4c3-c3ccc(F)cc3OCCOC)cc2C1 [Compound 202] | < 100 | A (percent of modification of PIK3CA protein ≥75%) |  | 
6 | C=CC(=O)N1CC(n2cc(-c3nc(-c4cnn(C)c(=O)c4)c4ccsc4c3-c3ccc(F)cc3OC)cn2)C1 [Compound 183] | 100 to 1000 | A (percent of modification of PIK3CA protein ≥75%) |  | 
7 | C=CC(=O)N1Cc2cc(-c3nc(-c4cnn(C(C)C)c4)c4ccsc4c3-c3c(F)cc(F)cc3OCCO)nn2[C@@H](C)C1 [Compound 728] | 100 to 1000 | D (percent of modification <25%) |  | 
8 | C=CC(=O)N1Cc2cc(-c3nc(-c4cnc(C)nc4)c4ccsc4c3-c3c(F)cc(F)cc3OCCOC)nn2C[C@H]1C [Compound 686] | < 100 | A (percent of modification of PIK3CA protein ≥75%) |  | 
9 | C=CC(=O)N1CCn2nc(-c3nc(-c4cnn(C5CN(C)C5)c4)c4ccsc4c3-c3c(F)cc(F)cc3OCCOC)cc2C1C (stereo not drawn) [Compound 1029] |  |  | < 100 | A (percent of modification of PIK3CA protein ≥75%)
10 | C=CC(=O)N1CCc2cc(-c3nc(-c4ccc5nn(C)cc5c4)c4ccsc4c3-c3c(F)cc(F)cc3OCCO)nn2CC1 [Compound 1200] |  |  | < 100 | A (percent of modification of PIK3CA protein ≥75%)
11 | C=CC(=O)N1CCc2nc(-c3nc(N4CCCC(N(C)C)C4)c4ccsc4c3-c3ccc(F)cc3OCCOC)sc2C1 (stereo not drawn) [Compound 159] | 100 to 1000 | B (50%<percent of modification <75%) |  | 
12 | C=CC(=O)N1Cc2cc(-c3nc(-c4ccc5c(c4)CCN(C)C5)c4ccsc4c3-c3c(F)cc(F)cc3OCC)nn2CC1C (stereo not drawn) [Compound 503] | < 100 | A (percent of modification of PIK3CA protein ≥75%) |  | 
13 | C=C(F)C(=O)N1Cc2cc(-c3nc(-c4ccc5c(c4)CCN(C)C5)c4ccsc4c3-c3c(F)cc(F)cc3OC(C)C)nn2CC1C (single isomer, unassigned) [Compound 501] | 100 to 1000 | D (percent of modification <25%) |  | 
14 | C=CC(=O)N1CCn2nc(-c3nc(-c4ccc5c(cnn5C)c4)c4ccsc4c3-c3c(F)cc(F)cc3OC3CC(F)(F)C3)cc2C1C (stereo not drawn) [Compound 1240] |  |  | < 100 | A (percent of modification of PIK3CA protein ≥75%)
15 | C=CC(=O)N1CCn2nc(-c3nc(-c4ccc(CN5CC(F)(F)C5)nc4)c4ccsc4c3-c3c(F)cc(F)cc3OCCOC)cc2[C@H]1C [Compound 529] | < 100 | A (percent of modification of PIK3CA protein ≥75%) |  | 
16 | C=CC(=O)N1CCc2ncc(-c3nc(-c4ccc5c(c4)CCNC5)c4c(c3-c3ccc(F)cc3OCCOC)CCC4)cc2C1 [Compound 88] | < 100 | A (percent of modification of PIK3CA protein ≥75%) |  | 
17 | C=CC(=O)N1CCn2nc(-c3nc(-c4cnn(C)c(=O)c4)c4ccsc4c3-c3c(F)cc(F)cc3OCCOC)cc2C1C (stereo not drawn) [Compound 984] | < 100 |  |  | A (percent of modification of PIK3CA protein ≥75%)
18 | C=C(F)C(=O)N1CCn2nc(-c3nc(-c4ccc(=O)n(C)c4)c4ccsc4c3-c3ccc(F)cc3OC(C)C)cc2C1 [Compound 276] | 100 to 1000 | A (percent of modification of PIK3CA protein ≥75%) |  | 
